Measurements published in patent US20090012103A1, “SUBSTITUTED HETEROCYCLIC COMPOUNDS” (priority 2007, published 2009).

Molecular target: wild-type human cardiac sodium channel, hNav1.5 (Homo sapiens, UniProt Q14524)
Test: Late INa screening assay (late sodium current, PatchXpress whole cell patch clamp)
Format: cell-based
Conditions: compound at 10 μM; read-out: Late INa % blk

Sequence of wild-type human cardiac sodium channel, hNav1.5 (Q14524 whole entry): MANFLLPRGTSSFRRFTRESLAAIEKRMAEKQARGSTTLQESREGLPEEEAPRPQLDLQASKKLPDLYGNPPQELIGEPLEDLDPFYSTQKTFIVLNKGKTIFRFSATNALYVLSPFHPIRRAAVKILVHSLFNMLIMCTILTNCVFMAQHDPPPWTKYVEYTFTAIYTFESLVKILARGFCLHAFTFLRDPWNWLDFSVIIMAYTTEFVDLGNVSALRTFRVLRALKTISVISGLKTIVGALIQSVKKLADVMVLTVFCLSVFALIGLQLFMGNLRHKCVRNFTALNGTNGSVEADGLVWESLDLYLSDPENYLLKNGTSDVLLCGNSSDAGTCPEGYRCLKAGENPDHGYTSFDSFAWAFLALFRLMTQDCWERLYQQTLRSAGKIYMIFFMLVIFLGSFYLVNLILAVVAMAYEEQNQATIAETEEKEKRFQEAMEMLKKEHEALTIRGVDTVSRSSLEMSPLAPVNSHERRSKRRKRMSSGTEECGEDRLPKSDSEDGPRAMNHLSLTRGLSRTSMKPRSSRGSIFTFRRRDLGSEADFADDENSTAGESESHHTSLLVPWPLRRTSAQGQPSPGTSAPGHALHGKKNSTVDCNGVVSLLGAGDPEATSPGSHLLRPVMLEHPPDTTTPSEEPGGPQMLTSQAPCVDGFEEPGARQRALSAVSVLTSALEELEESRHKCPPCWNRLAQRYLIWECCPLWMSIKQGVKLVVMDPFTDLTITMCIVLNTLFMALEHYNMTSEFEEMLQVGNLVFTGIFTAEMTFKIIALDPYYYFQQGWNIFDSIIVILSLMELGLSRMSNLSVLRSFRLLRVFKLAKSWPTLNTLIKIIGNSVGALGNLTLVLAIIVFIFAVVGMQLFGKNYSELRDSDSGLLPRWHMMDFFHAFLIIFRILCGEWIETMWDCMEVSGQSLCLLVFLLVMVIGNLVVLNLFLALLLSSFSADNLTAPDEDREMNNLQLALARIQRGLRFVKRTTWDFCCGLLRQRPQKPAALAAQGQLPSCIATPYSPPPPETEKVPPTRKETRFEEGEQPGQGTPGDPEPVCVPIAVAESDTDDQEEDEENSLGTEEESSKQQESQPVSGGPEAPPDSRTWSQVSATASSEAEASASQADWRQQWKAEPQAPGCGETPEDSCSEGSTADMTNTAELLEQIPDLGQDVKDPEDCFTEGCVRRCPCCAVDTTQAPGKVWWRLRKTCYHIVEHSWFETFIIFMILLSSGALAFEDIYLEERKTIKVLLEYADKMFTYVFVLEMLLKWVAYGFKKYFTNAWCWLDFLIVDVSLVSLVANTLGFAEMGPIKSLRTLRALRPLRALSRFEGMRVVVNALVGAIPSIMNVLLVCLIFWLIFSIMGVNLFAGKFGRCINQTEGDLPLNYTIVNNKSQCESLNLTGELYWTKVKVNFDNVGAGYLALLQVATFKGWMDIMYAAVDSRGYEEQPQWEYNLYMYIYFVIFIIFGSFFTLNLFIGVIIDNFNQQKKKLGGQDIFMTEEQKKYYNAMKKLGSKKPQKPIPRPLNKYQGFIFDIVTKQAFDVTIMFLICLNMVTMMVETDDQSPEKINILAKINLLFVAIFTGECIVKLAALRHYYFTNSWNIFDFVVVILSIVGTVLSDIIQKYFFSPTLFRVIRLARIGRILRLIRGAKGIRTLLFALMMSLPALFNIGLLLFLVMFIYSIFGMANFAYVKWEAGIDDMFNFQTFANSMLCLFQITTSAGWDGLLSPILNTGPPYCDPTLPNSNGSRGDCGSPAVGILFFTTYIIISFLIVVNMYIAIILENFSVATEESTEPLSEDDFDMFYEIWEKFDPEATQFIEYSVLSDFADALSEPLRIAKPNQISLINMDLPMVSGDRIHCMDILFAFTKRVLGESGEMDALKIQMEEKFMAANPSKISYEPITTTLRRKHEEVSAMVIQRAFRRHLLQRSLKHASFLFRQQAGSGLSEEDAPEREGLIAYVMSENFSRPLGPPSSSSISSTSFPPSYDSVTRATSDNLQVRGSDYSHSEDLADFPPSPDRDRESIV

Compound	inhibition at 10 µM [%]
COc1ccc(C2C(C(=O)OCc3ccccc3)=C(C)Nc3nnnn32)c(OC)c1 (stereo not shown) [PT-385, benzyl 7-(2,4-dimethoxyphenyl)-5-methyl-4,7-dihydrotetrazolo[1,5-a]pyrimidine-6-carboxylate]	56.5
CCOC(=O)C1=C(C)Nc2nnnn2C1c1ccccc1N1CCC(C(=O)OCC)CC1 (stereo not shown) [PT-484, ethyl 7-(2-(4-(ethoxycarbonyl)piperidin-1-yl)phenyl)-5-methyl-4,7-dihydrotetrazolo[1,5-a]pyrimidine-6-carboxylate]	36.1
CC1=C(C(=O)OCc2ccccc2)C(c2ccccc2-c2cccc(C(F)(F)F)c2)n2nnnc2N1 (stereo not shown) [PT-349, benzyl 5-methyl-7-(3′-(trifluoromethyl)biphenyl-2-yl)-4,7-dihydrotetrazolo[1,5-a]pyrimidine-6-carboxylate]	77.3
CC1=C(C(=O)OCc2ccccc2)C(c2ccc(OC(F)(F)F)cc2)n2nnnc2N1 (stereo not shown) [PT-357, benzyl 5-methyl-7-(4-(trifluoromethoxy)phenyl)-4,7-dihydrotetrazolo[1,5-a]pyrimidine-6-carboxylate]	19.6
CC1=C(C(=O)OCc2ccccc2)C(c2ccccc2Br)C2=C(CCCC2=O)N1 (stereo not shown) [PT-329, benzyl 4-(2-bromophenyl)-2-methyl-5-oxo-1,4,5,6,7,8-hexahydroquinoline-3-carboxylate]	54.9
CC1=C(C(=O)OCc2ccccc2)C(c2ccccc2-c2cccc(C(=O)O)c2)n2nnnc2N1 (stereo not shown) [PT-253, 2′-(6-(benzyloxycarbonyl)-5-methyl-4,7-dihydrotetrazolo[1,5-a]pyrimidin-7-yl)biphenyl-3-carboxylic acid]	9.1
CC1=C(C(=O)OCc2ccccc2)C(c2ccc(C#N)cc2)n2nnnc2N1 (stereo not shown) [PT-418, benzyl 7-(4-cyanophenyl)-5-methyl-4,7-dihydrotetrazolo[1,5-a]pyrimidine-6-carboxylate]	42.7
CC1=C(C(=O)OCc2ccccc2)C(c2ccccc2-c2ccc(OCc3ccccc3)cc2)n2nnnc2N1 (stereo not shown) [PT-407, benzyl 7-(4′-(benzyloxy)biphenyl-2-yl)-5-methyl-4,7-dihydrotetrazolo[1,5-a]pyrimidine-6-carboxylate]	10.6
CC1=C(C(=O)OCc2ccccc2)C(c2ccccc2)c2cn[nH]c2N1 (stereo not shown) [PT-372, benzyl 6-methyl-4-phenyl-4,7-dihydro-1H-pyrazolo[3,4-b]pyridine-5-carboxylate]	20.8
COC(=O)C1=C(C)Nc2nnnn2C1c1ccccc1I (stereo not shown) [PT-519, methyl 7-(2-iodophenyl)-5-methyl-4,7-dihydrotetrazolo[1,5-a]pyrimidine-6-carboxylate]	27.3
CC1=C(C(=O)N[C@@H](C)c2ccccc2)C(c2cccc3ccccc23)n2nnnc2N1 (stereo partly drawn) [PT-071, 5-methyl-7-(naphthalen-1-yl)-N-((S)-1-phenylethyl)-4,7-dihydrotetrazolo[1,5-a]pyrimidine-6-carboxamide]	16.3
CCOC(=O)C1=C(C)Nc2[nH]ncc2C1c1ccc(N(C)C)c2ccccc12 (stereo not shown) [PT-454, ethyl 4-(4-(dimethylamino)naphthalen-1-yl)-6-methyl-4,7-dihydro-1H-pyrazolo[3,4-b]pyridine-5-carboxylate]	30.2
COc1cc(-c2nnn[nH]2)ccc1C1C(C(=O)OCc2ccccc2)=C(C)Nc2nnnn21 (stereo not shown) [PT-393, benzyl 7-(2-methoxy-4-(1H-tetrazol-5-yl)phenyl)-5-methyl-4,7-dihydrotetrazolo[1,5-a]pyrimidine-6-carboxylate]	9.8
CCOC(=O)C1=C(C)Nc2nnnn2C1c1ccccc1OCc1ccc(C(=O)OCC)cc1 (stereo not shown) [PT-482, ethyl 7-(2-(4-(ethoxycarbonyl)benzyloxy)phenyl)-5-methyl-4,7-dihydrotetrazolo[1,5-a]pyrimidine-6-carboxylate]	3.2
CC1=C(C(=O)OCc2cccc(-c3nnn[nH]3)c2)C(c2cccc3ccccc23)n2nnnc2N1 (stereo not shown) [PT-271, 3-(1H-tetrazol-5-yl)benzyl 5-methyl-7-(naphthalen-1-yl)-4,7-dihydrotetrazolo[1,5-a]pyrimidine-6-carboxylate]	5.8
CC1=C(C(=O)OCc2ccccc2)C(c2ccccc2OCc2ccccc2)n2nnnc2N1 (stereo not shown) [PT-383, benzyl 7-(2-(benzyloxy)phenyl)-5-methyl-4,7-dihydrotetrazolo[1,5-a]pyrimidine-6-carboxylate]	79.5
CCOC(=O)C1=C(C)Nc2nnnn2C1c1ccccc1OCc1ccc(C(=O)O)cc1 (stereo not shown) [PT-285, 4-((2-(6-(ethoxycarbonyl)-5-methyl-4,7-dihydrotetrazolo[1,5-a]pyrimidin-7-yl)phenoxy)methyl)benzoic acid]	-2.2
CC1=C(C(=O)OCc2ccc(-c3nnn[nH]3)cc2)C(c2cccc3ccccc23)n2nnnc2N1 (stereo not shown) [PT-060, 4-(1H-tetrazol-5-yl)benzyl 5-methyl-7-(naphthalen-1-yl)-4,7-dihydrotetrazolo[1,5-a]pyrimidine-6-carboxylate]	5.6
CC1=C(c2nnc(C)o2)C(c2cccc3ccccc23)n2nnnc2N1 (stereo not shown) [PT-267, 2-methyl-5-(5-methyl-7-(naphthalen-1-yl)-4,7-dihydrotetrazolo[1,5-a]pyrimidin-6-yl)-1,3,4-oxadiazole]	17

Compound	inhibition at 10 µM [%]
CC1=C(C(=O)N2CCC(c3ccccc3)CC2)C(c2cccc3ccccc23)C2=C(CCCC2=O)N1 (stereo not shown) [PT-170, 2-methyl-4-(naphthalen-1-yl)-3-(4-phenylpiperidine-1-carbonyl)-4,6,7,8-tetrahydroquinolin-5(1H)-one]	9.8
CC1=C(C(=O)OC(C)C)C(c2ccc3ccccc3c2)n2nnnc2N1 (stereo not shown) [PT-020, isopropyl 5-methyl-7-(naphthalen-2-yl)-4,7-dihydrotetrazolo[1,5-a]pyrimidine-6-carboxylate]	47.7
COc1ccc(C2C(C(=O)OCc3ccccc3)=C(C)Nc3nnnn32)c(OCc2ccccc2)c1 (stereo not shown) [PT-380, benzyl 7-(2-(benzyloxy)-4-methoxyphenyl)-5-methyl-4,7-dihydrotetrazolo[1,5-a]pyrimidine-6-carboxylate]	70.9
CCOC(=O)C1=C(C)Nc2ccnn2C1c1ccc(N(C)C)c2ccccc12 (stereo not shown) [PT-502, ethyl 7-(4-(dimethylamino)naphthalen-1-yl)-5-methyl-4,7-dihydropyrazolo[1,5-a]pyrimidine-6-carboxylate]	27
CCOC(=O)C1=C(C)Nc2nnnn2C1c1ccccc1Oc1cccc(C(=O)O)c1 (stereo not shown) [PT-272, 3-(2-(6-(ethoxycarbonyl)-5-methyl-4,7-dihydrotetrazolo[1,5-a]pyrimidin-7-yl)phenoxy)benzoic acid]	-4.9
CC1=C(C(=O)OCc2ccccc2)C(c2ccccc2OCc2ccccc2)C2=C(CCCC2=O)N1 (stereo not shown) [PT-328, benzyl 4-(2-(benzyloxy)phenyl)-2-methyl-5-oxo-1,4,5,6,7,8-hexahydroquinoline-3-carboxylate]	58.1
CC1=C(C(=O)OCc2ccccc2)C(c2ccc(N(C)C)cc2)n2nnnc2N1 (stereo not shown) [PT-410, benzyl 7-(4-(dimethylamino)phenyl)-5-methyl-4,7-dihydrotetrazolo[1,5-a]pyrimidine-6-carboxylate]	11.4
CC1=C(C(=O)OCc2ccccc2)C(c2ccc(N(C)C)c3ccccc23)n2ncc(C(=O)O)c2N1 (stereo not shown) [PT-311, 6-(benzyloxycarbonyl)-7-(4-(dimethylamino)naphthalen-1-yl)-5-methyl-4,7-dihydropyrazolo[1,5-a]pyrimidine-3-carboxylic acid]	-7.5
CC1=C(C(=O)OCc2ccccc2)C(c2ccccc2-c2ccccc2)C2=C(CCCC2=O)N1 (stereo not shown) [PT-336, benzyl 4-(biphenyl-2-yl)-2-methyl-5-oxo-1,4,5,6,7,8-hexahydroquinoline-3-carboxylate]	60.1
CCOC(=O)c1ccc(N2CCN(C(=O)C3=C(C)NC4=C(C(=O)CCC4)C3c3cccc4ccccc34)CC2)cc1 (stereo not shown) [PT-452, ethyl 4-(4-(2-methyl-4-(naphthalen-1-yl)-5-oxo-1,4,5,6,7,8-hexahydroquinoline-3-carbonyl)piperazin-1-yl)benzoate]	5.9
CCOC(=O)C1=C(C)Nc2nnnn2C1c1ccccc1OCc1cccc(C(=O)O)c1 (stereo not shown) [PT-268, 3-((2-(6-(ethoxycarbonyl)-5-methyl-4,7-dihydrotetrazolo[1,5-a]pyrimidin-7-yl)phenoxy)methyl)benzoic acid]	9.5
CCOC(=O)C1=C(C)N(C)c2nnnn2C1c1cccc2ccccc12 (stereo not shown) [PT-015, ethyl 4,5-dimethyl-7-(naphthalen-1-yl)-4,7-dihydrotetrazolo[1,5-a]pyrimidine-6-carboxylate]	27.2
CC1=C(C(=O)OCc2ccccc2)C(c2ccc3ccccc3c2)c2cn[nH]c2N1 (stereo not shown) [PT-368, benzyl 6-methyl-4-(naphthalen-2-yl)-4,7-dihydro-1H-pyrazolo[3,4-b]pyridine-5-carboxylate]	-4.2
COC(=O)c1ccc(C2C(C(=O)OCc3ccccc3)=C(C)Nc3nnnn32)cc1 (stereo not shown) [PT-412, benzyl 7-(4-(methoxycarbonyl)phenyl)-5-methyl-4,7-dihydrotetrazolo[1,5-a]pyrimidine-6-carboxylate]	27.6
CCCC1=C(C(=O)OCC)C(c2ccc(Br)s2)C(C(=O)OCC)=C(CCC)N1 [PT-182, diethyl 4-(5-bromothiophen-2-yl)-2,6-dipropyl-1,4-dihydropyridine-3,5-dicarboxylate]	33
CCOC(=O)C1=C(C)NC(C)=C(C(=O)OCC)C1c1ccc(C(=O)O)s1 [PT-112, 5-(3,5-bis(ethoxycarbonyl)-2,6-dimethyl-1,4-dihydropyridin-4-yl)thiophene-2-carboxylic acid]	-24.9
CCOC(=O)C1=C(C)NC(C)=C(C(=O)OCC)C1c1ccc(N(C)C)cc1OC [PT-436, diethyl 4-(4-(dimethylamino)-2-methoxyphenyl)-2,6-dimethyl-1,4-dihydropyridine-3,5-dicarboxylate]	18.7
COC(=O)C1=C(C)Nc2nnnn2C1c1c(-c2cccc(C(=O)O)c2)sc2ccccc12 (stereo not shown) [PT-275, 3-(3-(6-(methoxycarbonyl)-5-methyl-4,7-dihydrotetrazolo[1,5-a]pyrimidin-7-yl)benzo[b]thiophen-2-yl)benzoic acid]	9.4
